Assay results as given in ChEMBL document CHEMBL4619816, “GSK973 Is an Inhibitor of the Second Bromodomains (BD2s) of the Bromodomain and Extra-Terminal (BET) Family” (ACS Med Chem Lett, 2020).
Calls of active or inactive are those of the source. The rule behind the calls is not given here.

How the values were obtained:
[1] = Volume of distribution at steady state in Wistar Han rat at 1 mg/kg administered as iv infusion for 1 hr and measured up to 24 hrs by LC-MS/MS analysis; assay type: ADME, organism-based; details: in vivo, read-out: Vdss
[2] = Permeability of compound by artificial membrane assay; assay type: ADME; details: PAMPA; read-out: permeability
[3] = target: Bromodomain adjacent to zinc finger domain protein 2B (Homo sapiens) (UniProt Q9UIF8); assay: Inhibition of human partial length BAZ2B (S2054 to S2168 residues) expressed in bacterial expression system by BROMOscan assay
[4] = target: Protein polybromo-1 (Homo sapiens) (UniProt Q86U86); assay: Inhibition of human partial length PBRM1 bromodomain 1 (S178 to E291 residues) expressed in bacterial expression system by BROMOscan assay
Protein polybromo-1 (Homo sapiens), sequence (Q86U86 whole entry, the tested form may be a part): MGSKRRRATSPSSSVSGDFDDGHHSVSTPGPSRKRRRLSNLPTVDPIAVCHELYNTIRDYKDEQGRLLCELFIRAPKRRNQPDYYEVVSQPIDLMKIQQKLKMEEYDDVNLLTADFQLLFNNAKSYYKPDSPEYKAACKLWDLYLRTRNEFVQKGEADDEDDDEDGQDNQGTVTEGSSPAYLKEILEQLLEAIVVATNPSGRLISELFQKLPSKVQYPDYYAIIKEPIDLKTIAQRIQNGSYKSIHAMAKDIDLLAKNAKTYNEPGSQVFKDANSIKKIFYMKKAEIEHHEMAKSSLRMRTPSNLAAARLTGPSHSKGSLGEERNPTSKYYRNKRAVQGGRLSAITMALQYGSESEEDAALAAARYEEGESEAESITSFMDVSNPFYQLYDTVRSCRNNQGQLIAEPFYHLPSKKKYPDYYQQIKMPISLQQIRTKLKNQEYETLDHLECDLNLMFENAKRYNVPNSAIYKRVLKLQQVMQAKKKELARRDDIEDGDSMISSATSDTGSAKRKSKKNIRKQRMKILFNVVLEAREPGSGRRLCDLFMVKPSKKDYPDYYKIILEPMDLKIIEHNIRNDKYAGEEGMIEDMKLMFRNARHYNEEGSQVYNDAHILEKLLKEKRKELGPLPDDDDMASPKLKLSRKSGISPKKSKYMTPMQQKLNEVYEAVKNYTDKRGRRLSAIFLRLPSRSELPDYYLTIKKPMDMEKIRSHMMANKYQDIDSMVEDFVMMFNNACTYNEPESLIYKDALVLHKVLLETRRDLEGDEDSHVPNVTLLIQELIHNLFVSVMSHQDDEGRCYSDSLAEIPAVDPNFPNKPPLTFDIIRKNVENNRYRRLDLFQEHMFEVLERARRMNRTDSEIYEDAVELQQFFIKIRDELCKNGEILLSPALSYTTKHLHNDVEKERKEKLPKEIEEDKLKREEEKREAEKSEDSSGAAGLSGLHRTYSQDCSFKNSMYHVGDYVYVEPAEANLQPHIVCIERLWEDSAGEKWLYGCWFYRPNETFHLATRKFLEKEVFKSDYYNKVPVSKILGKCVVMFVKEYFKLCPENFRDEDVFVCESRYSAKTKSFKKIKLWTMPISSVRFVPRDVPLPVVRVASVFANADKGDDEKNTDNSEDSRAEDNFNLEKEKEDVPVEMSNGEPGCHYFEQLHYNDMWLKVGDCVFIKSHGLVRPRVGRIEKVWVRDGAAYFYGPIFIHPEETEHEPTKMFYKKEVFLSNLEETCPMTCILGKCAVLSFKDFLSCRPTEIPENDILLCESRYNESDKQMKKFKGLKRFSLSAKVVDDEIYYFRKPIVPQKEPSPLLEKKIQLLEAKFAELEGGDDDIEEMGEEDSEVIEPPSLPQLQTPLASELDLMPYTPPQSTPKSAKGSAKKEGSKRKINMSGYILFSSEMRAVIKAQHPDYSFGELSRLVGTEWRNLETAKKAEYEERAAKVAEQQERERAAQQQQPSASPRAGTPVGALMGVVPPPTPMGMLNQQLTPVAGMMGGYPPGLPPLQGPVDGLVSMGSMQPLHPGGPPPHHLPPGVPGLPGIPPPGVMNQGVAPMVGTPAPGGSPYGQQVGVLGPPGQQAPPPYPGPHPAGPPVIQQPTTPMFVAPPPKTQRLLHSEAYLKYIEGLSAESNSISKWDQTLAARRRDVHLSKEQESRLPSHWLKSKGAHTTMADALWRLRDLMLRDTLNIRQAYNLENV

[5] = target: Nucleosome-remodeling factor subunit BPTF (Homo sapiens) (UniProt Q12830); assay: Inhibition of human partial length FALZ (S2791 to H2911 residues) expressed in bacterial expression system by BROMOscan assay
[6] = target: Histone acetyltransferase p300 (Homo sapiens) (UniProt Q09472); assay: Inhibition of human partial length EP300 (A1040 to G1161 residues) expressed in bacterial expression system by BROMOscan assay
[7] = target: Bromodomain-containing protein 8 (Homo sapiens) (UniProt Q9H0E9); assay: Inhibition of BRD8 bromodomain 1 (unknown origin) by BROMOscan assay
Bromodomain-containing protein 8 (Homo sapiens), sequence (Q9H0E9 whole entry, the tested form may be a part, canonical isoform): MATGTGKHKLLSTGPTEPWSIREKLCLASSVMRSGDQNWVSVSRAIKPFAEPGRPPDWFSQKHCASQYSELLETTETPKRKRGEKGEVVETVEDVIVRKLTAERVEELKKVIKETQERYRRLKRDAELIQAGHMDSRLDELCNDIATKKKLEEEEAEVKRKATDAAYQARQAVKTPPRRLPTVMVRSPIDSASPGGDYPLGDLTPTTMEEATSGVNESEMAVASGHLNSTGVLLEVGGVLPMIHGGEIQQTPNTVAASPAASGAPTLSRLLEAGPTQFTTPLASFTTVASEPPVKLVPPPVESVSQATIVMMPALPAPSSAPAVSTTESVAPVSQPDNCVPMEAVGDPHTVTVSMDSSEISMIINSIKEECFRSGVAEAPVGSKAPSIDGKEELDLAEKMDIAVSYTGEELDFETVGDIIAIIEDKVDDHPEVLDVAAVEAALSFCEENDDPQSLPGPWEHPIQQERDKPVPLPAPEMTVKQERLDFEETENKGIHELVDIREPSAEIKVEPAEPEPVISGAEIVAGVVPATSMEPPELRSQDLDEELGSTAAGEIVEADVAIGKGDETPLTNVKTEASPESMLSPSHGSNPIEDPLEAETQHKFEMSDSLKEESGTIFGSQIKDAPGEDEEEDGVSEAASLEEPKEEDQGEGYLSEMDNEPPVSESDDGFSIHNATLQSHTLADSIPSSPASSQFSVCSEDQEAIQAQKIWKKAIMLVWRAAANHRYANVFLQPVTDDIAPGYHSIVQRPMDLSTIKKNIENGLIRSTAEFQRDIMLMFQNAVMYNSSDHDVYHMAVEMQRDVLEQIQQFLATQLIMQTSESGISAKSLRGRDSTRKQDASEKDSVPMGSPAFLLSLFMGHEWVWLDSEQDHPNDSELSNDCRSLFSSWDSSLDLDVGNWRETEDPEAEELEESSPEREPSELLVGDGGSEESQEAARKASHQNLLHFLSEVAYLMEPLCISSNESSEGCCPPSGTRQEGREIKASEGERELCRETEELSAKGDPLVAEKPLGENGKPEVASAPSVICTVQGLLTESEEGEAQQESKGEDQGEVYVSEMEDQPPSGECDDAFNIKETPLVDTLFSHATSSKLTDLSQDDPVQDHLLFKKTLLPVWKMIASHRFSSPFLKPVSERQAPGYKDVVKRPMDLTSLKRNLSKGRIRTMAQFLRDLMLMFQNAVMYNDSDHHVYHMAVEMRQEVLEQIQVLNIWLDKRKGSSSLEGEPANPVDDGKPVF

[8] = Oral bioavailability in Wistar Han rat at 3 mg/kg measured up to 24 hrs by LC-MS/MS analysis; assay type: ADME, organism-based; details: in vivo
[9] = target: Bromodomain-containing protein 3 (Homo sapiens) (UniProt Q15059); assay: Inhibition of BRD3 bromodomain 1/2 (unknown origin) by BROMOscan assay
Bromodomain-containing protein 3 (Homo sapiens), sequence (Q15059 2-726 limits assumed): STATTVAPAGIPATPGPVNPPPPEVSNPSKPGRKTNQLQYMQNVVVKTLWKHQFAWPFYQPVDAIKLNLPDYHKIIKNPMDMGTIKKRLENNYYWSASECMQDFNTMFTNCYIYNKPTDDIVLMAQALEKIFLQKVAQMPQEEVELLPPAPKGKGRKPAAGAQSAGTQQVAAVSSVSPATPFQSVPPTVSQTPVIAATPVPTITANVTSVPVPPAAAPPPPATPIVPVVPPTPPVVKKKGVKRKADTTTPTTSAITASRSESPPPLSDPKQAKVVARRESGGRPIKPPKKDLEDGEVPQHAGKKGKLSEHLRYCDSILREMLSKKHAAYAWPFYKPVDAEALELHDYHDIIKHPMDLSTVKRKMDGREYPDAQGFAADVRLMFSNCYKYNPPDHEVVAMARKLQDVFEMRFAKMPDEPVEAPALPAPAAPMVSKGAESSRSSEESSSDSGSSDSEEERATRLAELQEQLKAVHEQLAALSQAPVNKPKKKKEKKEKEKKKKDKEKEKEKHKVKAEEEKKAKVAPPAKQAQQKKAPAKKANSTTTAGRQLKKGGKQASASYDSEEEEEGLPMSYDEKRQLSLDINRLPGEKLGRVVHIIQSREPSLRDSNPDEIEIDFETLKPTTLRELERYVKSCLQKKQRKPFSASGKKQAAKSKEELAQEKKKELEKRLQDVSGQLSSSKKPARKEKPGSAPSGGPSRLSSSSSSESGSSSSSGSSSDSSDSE

[10] = target: Bromodomain-containing protein 7 (Homo sapiens) (UniProt Q9NPI1); assay: Inhibition of human partial length BRD7 (L125 to R254 residues) expressed in mammalian expression system by BROMOscan assay
Bromodomain-containing protein 7 (Homo sapiens), sequence (Q9NPI1 whole entry, the tested form may be a part): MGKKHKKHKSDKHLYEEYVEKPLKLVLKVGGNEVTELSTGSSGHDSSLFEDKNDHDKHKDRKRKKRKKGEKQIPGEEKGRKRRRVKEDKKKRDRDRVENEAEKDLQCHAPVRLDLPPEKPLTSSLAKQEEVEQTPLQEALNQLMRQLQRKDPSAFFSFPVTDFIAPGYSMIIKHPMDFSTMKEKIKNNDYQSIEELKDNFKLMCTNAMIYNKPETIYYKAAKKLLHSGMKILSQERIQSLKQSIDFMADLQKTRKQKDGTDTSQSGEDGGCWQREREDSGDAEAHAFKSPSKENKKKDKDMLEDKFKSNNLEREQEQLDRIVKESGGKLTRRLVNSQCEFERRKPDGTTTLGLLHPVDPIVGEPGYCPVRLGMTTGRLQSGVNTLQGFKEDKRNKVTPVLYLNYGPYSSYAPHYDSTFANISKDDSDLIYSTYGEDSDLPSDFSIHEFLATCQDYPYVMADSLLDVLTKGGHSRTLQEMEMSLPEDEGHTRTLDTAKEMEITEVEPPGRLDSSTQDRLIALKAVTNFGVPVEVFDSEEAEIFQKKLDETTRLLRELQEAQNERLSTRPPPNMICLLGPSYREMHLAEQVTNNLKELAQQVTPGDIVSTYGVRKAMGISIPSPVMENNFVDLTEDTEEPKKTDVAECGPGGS

[11] = target: E3 ubiquitin-protein ligase TRIM33 (Homo sapiens) (UniProt Q9UPN9); assay: Inhibition of human partial length TRIM33 (D882 to A1087 residues) expressed in bacterial expression system by BROMOscan assay
[12] = target: Bromodomain-containing protein 8 (Homo sapiens) (UniProt Q9H0E9); assay: Inhibition of BRD8 bromodomain 2 (unknown origin) by BROMOscan assay
[13] = target: Bromodomain-containing protein 2 (Homo sapiens) (UniProt P25440); assay: Inhibition of human partial length BRD2 bromodomain 1/2 isoform 1 (K71 to D455 residues) by BROMOscan assay
Bromodomain-containing protein 2 (Homo sapiens), sequence (P25440 whole entry, looked up, the tested form may be a part, canonical isoform): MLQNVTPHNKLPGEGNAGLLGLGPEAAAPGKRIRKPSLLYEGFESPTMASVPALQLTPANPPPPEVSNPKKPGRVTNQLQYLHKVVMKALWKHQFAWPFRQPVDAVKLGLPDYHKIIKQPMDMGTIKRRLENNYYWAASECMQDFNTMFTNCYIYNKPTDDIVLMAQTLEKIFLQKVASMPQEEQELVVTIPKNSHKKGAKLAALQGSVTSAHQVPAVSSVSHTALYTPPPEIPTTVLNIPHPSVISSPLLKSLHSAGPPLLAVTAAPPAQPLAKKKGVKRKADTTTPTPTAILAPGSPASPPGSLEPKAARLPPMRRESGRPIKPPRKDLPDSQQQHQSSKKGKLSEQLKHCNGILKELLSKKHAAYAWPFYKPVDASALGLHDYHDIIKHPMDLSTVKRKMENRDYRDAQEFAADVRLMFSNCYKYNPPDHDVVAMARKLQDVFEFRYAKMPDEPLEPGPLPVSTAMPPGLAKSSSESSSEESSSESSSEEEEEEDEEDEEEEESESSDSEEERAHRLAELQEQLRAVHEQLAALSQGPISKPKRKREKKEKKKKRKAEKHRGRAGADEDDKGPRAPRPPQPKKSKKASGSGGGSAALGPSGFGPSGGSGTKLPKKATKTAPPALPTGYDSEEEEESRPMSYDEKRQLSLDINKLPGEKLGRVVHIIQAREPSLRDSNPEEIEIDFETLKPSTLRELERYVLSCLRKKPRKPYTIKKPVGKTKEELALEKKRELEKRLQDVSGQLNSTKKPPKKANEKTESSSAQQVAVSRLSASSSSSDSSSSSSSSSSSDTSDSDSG

Blood = assay: Inhibition of LPS-induced MCP1 production in human whole blood preincubated for 30 mins followed by LPS addition measured after 24 hrs by immuno assay; assay type: functional, tissue-based

Vd [1]: 2.1 L/kg
Papp [2]: 16.5 ×10⁻⁶ cm/s
inhibition [3]: inactive
inhibition [4]: inactive
inhibition [5]: inactive
inhibition [6]: inactive
inhibition [7]: inactive
bioavailability [8]: 48%
inhibition [9]: inactive
inhibition [10]: inactive
inhibition [11]: inactive
inhibition [12]: inactive
inhibition [13]: inactive
IC50 (Blood): 50.1 nM
Structure (SMILES): CNC(=O)c1cc(C(=O)N[C@@H]2[C@@H]3COC[C@@H]32)cc2c1O[C@H](CF)[C@H]2c1ccccc1
